Measurements: US20220226281A1, “COMPOUNDS FOR USE IN ANTI-CANCER IMMUNOTHERAPY” (priority 2019, published 2022)

Tested on: splenocytes from LCMV-CL13 infected IFN-γ-YFP mice
Format: cell-based

Row | SMILES | Mean Z-score at 1 μM (reversal of T-cell exhaustion)
1 | C/C=C(/C)C(=O)O[C@H]1C(C)=C[C@]23C(=O)[C@@H](C=C(CO)[C@@H](O)[C@]12O)[C@H]1[C@@H](C[C@H]3C)C1(C)C [Ingenol-3-angelate] | 30.9
2 | CCCCCCCCCCCCCC(=O)O[C@@H]1[C@@H](C)[C@@]2(O)C(C=C(CO)C[C@]3(O)C(=O)C(C)=C[C@@H]23)[C@@H]2C(C)(C)[C@]12OC(C)=O (some centres unmarked) [12-O-tetradecanoylphorbol-13-acetate] | 17.8
3 | CC(=O)O[C@@]12[C@H](O)[C@@H](C)[C@@]3(O)C(C=C(CO)C[C@]4(O)C(=O)C(C)=C[C@@H]34)[C@@H]1C2(C)C (some centres unmarked) [Phorbol-13-acetate] | 0.9
4 | O=S(=O)(NCCCCCCc1ccccc1)c1cccc2c(Cl)cccc12 [5-chloro-N-(6-phenylhexyl)naphthalene-1-sulfonamide] | 11.1
5 | CC1=C[C@]23C(=O)[C@@H](C=C(CO)[C@@H](O)[C@]2(O)[C@H]1O)[C@H]1[C@@H](C[C@H]3C)C1(C)C [Ingenol] | 0.6
6 | CC(=O)O[C@@]12C[C@@H](C)[C@@]3(O)[C@@H](C=C(CO)C[C@]4(O)C(=O)C(C)=C[C@@H]34)[C@@H]1C2(C)C [prostratin] | 48.9
7 | CO[C@@H](CC[C@H](C)[C@H]1O[C@@]23C[C@H](OC(=O)C2=C(O)[C@H](C)CC3(C)C)[C@@H]1C)c1cccc(O)c1 [Neo-debromoaplysiatoxin B] | 3.6
8 | CC(C)[C@H]1C(=O)N[C@H](CO)Cc2cc(NC(=O)/C=C/C=C/c3ccc(C(F)(F)F)cc3)ccc2N1C [TPPB] | 4.6
